Columns and labels:
Assay in all cases: radiometric filter-binding kinase assay
MAPK3 (human) = MAPK3 (human) (UniProt P27361); details: compound 100.0 µM; ATP 5 µM
RPS6KA3 KD1 KD2 (human) = RPS6KA3 KD1 KD2 (human) (UniProt P51812); details: compound 100.0 µM; ATP 50 µM
[1] = test system: AKT2 (human), P31751 [S474D]; details: compound 100.0 µM; ATP 50 µM
MAPK13 (human) = MAPK13 (human) (UniProt O15264); details: compound 100.0 µM; ATP 5 µM
PKN2 (human) = PKN2 (human) (UniProt Q16513); details: compound 100.0 µM; ATP 5 µM
YES1 (human) = YES1 (human) (UniProt P07947); details: compound 100.0 µM; ATP 20 µM
MAPK14 (human) = MAPK14 (human) (UniProt Q16539); details: compound 100.0 µM; ATP 50 µM
PAK4 (human) = PAK4 (human) (UniProt O96013); details: compound 100.0 µM; ATP 5 µM
NEK2 (human) = NEK2 (human) (UniProt P51955); details: compound 100.0 µM; ATP 50 µM
MAPKAPK5 (human) = MAPKAPK5 (human) (UniProt Q8IW41); details: compound 100.0 µM; ATP 20 µM
CHEK2 (human) = CHEK2 (human) (UniProt O96017); details: compound 100.0 µM; ATP 20 µM
ABL1 (human) = ABL1 (human) (UniProt P00519); details: compound 100.0 µM; ATP 5 µM
MAPK9 (human) = MAPK9 (human) (UniProt P45984); details: compound 100.0 µM; ATP 20 µM
SRPK1 (human) = SRPK1 (human) (UniProt Q96SB4); details: compound 100.0 µM; ATP 50 µM
TTK (human) = TTK (human) (UniProt P33981); details: compound 100.0 µM; ATP 20 µM
DYRK2 (human) = DYRK2 (human) (UniProt Q92630); details: compound 100.0 µM; ATP 50 µM
RPS6KA5 KD1 KD2 (human) = RPS6KA5 KD1 KD2 (human) (UniProt O75582); details: compound 100.0 µM; ATP 20 µM
PIM2 (human) = PIM2 (human) (UniProt Q9P1W9); details: compound 100.0 µM; ATP 5 µM
JAK2 JH1 JH2 (human) = JAK2 JH1 JH2 (human) (UniProt O60674); details: compound 100.0 µM; ATP 5 µM
MINK1 (human) = MINK1 (human) (UniProt Q8N4C8); details: compound 100.0 µM; ATP 50 µM
INSR (human) = INSR (human) (UniProt P06213); details: compound 100.0 µM; ATP 20 µM
ZAP70 (human) = ZAP70 (human) (UniProt P43403); details: compound 100.0 µM; ATP 5 µM
[2] = test system: SGK1 (human), O00141 [S422D]; details: compound 100.0 µM; ATP 20 µM
MKNK2 (human) = MKNK2 (human) (UniProt Q9HBH9); details: compound 100.0 µM; ATP 50 µM
INSRR (human) = INSRR (human) (UniProt P14616); details: compound 100.0 µM; ATP 5 µM
FLT1 (human) = FLT1 (human) (UniProt P17948); details: compound 100.0 µM; ATP 20 µM
HIPK2 (human) = HIPK2 (human) (UniProt Q9H2X6); details: compound 100.0 µM; ATP 5 µM
MELK (human) = MELK (human) (UniProt Q14680); details: compound 100.0 µM; ATP 50 µM
[3] = target: STK11 CAB39 STRADA (human) (UniProt Q9Y376+Q7RTN6+Q15831); details: compound 100.0 µM; ATP 20 µM
IKBKB (human) = IKBKB (human) (UniProt O14920); details: compound 100.0 µM; ATP 5 µM
CDK2 CCNA2 (human) = CDK2 CCNA2 (human) (UniProt P20248+P24941); details: compound 100.0 µM; ATP 20 µM
CSNK2A1 (human) = CSNK2A1 (human) (UniProt P68400); details: compound 100.0 µM; ATP 5 µM
EPHB2 (human) = EPHB2 (human) (UniProt P29323); details: compound 100.0 µM; ATP 20 µM
IGF1R (human) = IGF1R (human) (UniProt P08069); details: compound 100.0 µM; ATP 5 µM
[4] = test system: PAK2 (human), Q13177 [T402E]; details: compound 100.0 µM; ATP 20 µM
MAPKAPK3 (human) = MAPKAPK3 (human) (UniProt Q16644); details: compound 100.0 µM; ATP 20 µM
MAPK1 (human) = MAPK1 (human) (UniProt P28482); details: compound 100.0 µM; ATP 20 µM
PDPK1 (human) = PDPK1 (human) (UniProt O15530); details: compound 100.0 µM
MAP3K11 (human) = MAP3K11 (human) (UniProt Q16584); details: compound 100.0 µM; ATP 20 µM

Sequence of RPS6KA3 KD1 KD2 (human) (P51812 whole entry, looked up): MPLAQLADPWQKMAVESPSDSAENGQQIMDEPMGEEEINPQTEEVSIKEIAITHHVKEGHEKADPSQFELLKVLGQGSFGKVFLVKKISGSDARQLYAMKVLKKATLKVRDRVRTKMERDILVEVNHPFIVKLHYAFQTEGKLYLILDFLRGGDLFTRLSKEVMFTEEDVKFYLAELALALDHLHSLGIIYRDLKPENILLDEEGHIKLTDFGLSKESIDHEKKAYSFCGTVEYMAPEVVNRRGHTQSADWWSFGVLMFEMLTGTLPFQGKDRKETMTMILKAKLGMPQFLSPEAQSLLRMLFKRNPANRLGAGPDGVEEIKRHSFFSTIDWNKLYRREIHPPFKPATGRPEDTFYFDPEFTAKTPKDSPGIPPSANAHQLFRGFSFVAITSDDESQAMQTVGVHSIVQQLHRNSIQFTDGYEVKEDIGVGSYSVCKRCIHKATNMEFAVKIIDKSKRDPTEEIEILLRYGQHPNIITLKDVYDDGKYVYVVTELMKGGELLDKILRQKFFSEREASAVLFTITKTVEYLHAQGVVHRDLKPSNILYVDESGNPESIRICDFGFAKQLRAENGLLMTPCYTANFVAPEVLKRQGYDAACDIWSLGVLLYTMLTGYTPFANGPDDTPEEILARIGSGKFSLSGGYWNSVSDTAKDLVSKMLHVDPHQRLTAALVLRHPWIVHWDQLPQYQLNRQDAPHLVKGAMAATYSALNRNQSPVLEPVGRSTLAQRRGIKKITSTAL
Sequence of INSRR (human) (P14616 whole entry, looked up): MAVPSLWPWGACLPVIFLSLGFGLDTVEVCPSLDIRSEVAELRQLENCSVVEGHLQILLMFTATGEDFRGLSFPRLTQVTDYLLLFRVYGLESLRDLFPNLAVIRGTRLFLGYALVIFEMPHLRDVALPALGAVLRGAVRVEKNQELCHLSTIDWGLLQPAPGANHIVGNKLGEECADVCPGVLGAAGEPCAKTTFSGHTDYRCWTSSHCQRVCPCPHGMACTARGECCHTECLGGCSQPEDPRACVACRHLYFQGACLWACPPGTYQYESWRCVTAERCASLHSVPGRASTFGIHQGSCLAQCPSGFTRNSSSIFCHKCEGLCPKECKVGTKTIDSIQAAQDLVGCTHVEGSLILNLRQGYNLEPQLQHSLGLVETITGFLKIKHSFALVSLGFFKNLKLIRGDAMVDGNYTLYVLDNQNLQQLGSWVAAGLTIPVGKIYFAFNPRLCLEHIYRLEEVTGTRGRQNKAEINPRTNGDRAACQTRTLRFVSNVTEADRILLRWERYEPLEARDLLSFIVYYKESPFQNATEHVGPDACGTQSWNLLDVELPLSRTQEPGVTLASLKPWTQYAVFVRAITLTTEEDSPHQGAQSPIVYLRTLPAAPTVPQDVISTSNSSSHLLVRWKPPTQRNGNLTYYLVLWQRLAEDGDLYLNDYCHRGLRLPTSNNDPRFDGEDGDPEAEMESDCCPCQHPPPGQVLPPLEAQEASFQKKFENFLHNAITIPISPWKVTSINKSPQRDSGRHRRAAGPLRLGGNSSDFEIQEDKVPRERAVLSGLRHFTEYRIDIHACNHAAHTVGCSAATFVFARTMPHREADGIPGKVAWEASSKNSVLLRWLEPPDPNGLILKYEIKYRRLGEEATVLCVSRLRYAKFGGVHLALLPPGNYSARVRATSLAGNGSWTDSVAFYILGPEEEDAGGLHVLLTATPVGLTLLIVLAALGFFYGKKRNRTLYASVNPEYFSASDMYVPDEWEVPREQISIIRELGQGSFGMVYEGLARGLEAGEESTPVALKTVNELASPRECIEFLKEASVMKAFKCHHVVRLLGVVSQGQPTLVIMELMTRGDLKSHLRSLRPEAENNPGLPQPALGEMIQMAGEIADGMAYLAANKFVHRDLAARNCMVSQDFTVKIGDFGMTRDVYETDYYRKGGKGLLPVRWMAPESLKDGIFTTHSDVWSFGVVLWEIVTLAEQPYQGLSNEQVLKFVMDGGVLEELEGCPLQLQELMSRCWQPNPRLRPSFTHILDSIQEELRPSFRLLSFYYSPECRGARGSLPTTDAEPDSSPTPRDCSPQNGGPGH
Sequence of YES1 (human) (P07947 whole entry, looked up): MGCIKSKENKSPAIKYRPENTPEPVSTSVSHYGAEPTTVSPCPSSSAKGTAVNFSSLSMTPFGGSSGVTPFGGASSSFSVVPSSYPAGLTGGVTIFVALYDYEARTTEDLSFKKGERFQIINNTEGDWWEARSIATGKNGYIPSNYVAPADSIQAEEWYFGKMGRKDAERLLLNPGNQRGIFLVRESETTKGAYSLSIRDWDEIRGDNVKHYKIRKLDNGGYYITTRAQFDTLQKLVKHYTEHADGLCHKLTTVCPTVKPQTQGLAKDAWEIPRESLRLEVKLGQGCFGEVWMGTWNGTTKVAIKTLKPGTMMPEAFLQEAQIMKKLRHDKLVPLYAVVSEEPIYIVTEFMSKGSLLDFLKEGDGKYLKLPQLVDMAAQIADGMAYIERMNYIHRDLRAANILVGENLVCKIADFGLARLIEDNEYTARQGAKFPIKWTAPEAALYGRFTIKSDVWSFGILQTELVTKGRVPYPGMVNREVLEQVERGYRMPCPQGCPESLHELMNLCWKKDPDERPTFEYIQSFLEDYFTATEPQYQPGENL
Sequence of CSNK2A1 (human) (P68400 whole entry, looked up): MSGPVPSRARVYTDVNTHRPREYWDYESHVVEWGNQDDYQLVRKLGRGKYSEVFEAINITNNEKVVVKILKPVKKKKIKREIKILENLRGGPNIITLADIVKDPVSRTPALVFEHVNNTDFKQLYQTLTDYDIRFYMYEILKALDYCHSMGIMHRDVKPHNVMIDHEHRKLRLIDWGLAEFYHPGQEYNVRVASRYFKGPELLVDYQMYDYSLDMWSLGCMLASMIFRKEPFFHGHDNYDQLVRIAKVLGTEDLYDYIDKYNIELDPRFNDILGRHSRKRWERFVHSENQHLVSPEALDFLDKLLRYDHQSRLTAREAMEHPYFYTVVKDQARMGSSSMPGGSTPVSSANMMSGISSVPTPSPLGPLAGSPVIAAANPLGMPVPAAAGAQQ
Sequence of DYRK2 (human) (Q92630 whole entry, looked up): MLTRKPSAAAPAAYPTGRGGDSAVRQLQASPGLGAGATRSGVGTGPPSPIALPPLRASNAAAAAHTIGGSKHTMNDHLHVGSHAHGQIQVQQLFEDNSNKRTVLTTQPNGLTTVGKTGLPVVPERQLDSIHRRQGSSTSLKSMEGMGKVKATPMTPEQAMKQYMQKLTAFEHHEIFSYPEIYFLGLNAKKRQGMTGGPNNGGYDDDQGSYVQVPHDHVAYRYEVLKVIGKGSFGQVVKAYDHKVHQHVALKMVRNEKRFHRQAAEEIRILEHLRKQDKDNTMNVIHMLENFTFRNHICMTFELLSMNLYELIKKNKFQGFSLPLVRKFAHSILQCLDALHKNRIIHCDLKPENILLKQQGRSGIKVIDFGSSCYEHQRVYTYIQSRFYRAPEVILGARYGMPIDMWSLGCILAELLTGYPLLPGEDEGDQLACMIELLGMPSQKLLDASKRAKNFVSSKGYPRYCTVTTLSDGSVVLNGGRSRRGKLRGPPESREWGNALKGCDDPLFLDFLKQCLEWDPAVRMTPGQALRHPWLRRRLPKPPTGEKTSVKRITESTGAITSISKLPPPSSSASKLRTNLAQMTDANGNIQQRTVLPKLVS
Sequence of MAPK3 (human) (P27361 whole entry, looked up): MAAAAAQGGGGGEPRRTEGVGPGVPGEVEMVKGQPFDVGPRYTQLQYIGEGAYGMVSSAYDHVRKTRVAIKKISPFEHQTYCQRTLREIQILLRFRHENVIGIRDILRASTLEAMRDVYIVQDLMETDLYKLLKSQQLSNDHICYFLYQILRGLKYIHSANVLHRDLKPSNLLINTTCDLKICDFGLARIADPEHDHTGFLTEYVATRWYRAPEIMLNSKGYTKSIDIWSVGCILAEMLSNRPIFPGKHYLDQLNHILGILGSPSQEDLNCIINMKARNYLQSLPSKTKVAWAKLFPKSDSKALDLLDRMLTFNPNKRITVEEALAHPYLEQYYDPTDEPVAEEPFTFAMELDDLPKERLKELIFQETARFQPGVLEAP
Sequence of MAPKAPK5 (human) (Q8IW41 whole entry, looked up): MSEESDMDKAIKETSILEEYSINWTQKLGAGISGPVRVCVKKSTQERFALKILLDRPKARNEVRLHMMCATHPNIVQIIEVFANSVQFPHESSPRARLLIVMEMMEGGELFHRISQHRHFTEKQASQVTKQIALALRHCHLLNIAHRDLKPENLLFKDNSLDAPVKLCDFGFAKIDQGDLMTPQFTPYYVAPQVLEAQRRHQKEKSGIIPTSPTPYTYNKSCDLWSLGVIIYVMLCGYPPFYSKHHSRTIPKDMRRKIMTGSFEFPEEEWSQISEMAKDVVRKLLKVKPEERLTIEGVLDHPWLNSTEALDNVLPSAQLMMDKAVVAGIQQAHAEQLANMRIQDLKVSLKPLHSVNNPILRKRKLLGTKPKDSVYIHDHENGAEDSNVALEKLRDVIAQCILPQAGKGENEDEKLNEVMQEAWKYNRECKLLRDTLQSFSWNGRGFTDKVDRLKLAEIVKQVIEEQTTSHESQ
Sequence of MAPK14 (human) (Q16539 whole entry, looked up): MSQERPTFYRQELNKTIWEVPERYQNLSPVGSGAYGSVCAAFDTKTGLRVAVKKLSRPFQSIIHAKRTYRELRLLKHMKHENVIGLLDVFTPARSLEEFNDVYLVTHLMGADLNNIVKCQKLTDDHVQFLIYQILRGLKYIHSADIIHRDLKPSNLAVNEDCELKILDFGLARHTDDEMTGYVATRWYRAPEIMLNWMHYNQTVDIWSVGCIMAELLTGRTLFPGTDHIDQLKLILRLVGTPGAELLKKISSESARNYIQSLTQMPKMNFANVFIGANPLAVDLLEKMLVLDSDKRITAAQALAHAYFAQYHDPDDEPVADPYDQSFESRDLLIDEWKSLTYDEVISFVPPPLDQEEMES

| inhibition (MAPK3 (human)) [%] | inhibition (RPS6KA3 KD1 KD2 (human)) [%] | inhibition [1] [%] | inhibition (MAPK13 (human)) [%] | inhibition (PKN2 (human)) [%] | inhibition (YES1 (human)) [%] | inhibition (MAPK14 (human)) [%] | inhibition (PAK4 (human)) [%] | inhibition (NEK2 (human)) [%] | inhibition (MAPKAPK5 (human)) [%] | inhibition (CHEK2 (human)) [%] | inhibition (ABL1 (human)) [%] | inhibition (MAPK9 (human)) [%] | inhibition (SRPK1 (human)) [%] | inhibition (TTK (human)) [%] | inhibition (DYRK2 (human)) [%] | inhibition (RPS6KA5 KD1 KD2 (human)) [%] | inhibition (PIM2 (human)) [%] | inhibition (JAK2 JH1 JH2 (human)) [%] | inhibition (MINK1 (human)) [%] | SMILES | other results |
| --- | --- | --- | --- | --- | --- | --- | --- | --- | --- | --- | --- | --- | --- | --- | --- | --- | --- | --- | --- | --- | --- |
| 3 | 25 | 16 | 0 | 2 | 33 | 21 | 11 | 29 | 13 | 19 | 3 | 10 | 0 | 11 | 37 | 21 | 17 | 25 | 28 | O=c1cc(-c2ccccc2F)nc2[nH]ccn12 | inhibition (INSR (human)): 6%; inhibition (ZAP70 (human)): 0%; inhibition [2]: 18%; inhibition (MKNK2 (human)): 26%; inhibition (INSRR (human)): 6%; inhibition (FLT1 (human)): 39%; inhibition (HIPK2 (human)): 61%; inhibition (MELK (human)): 1%; inhibition [3]: 6%; inhibition (IKBKB (human)): 15%; inhibition (CDK2 CCNA2 (human)): 21%; inhibition (CSNK2A1 (human)): 20%; inhibition (EPHB2 (human)): 0%; inhibition (IGF1R (human)): 28%; inhibition [4]: 0%; inhibition (MAPKAPK3 (human)): 15%; inhibition (MAPK1 (human)): 8%; inhibition (PDPK1 (human); ATP 20 µM): 2%; inhibition (PDPK1 (human); ATP 50 µM): 15%; inhibition (MAP3K11 (human)): 7% |
| 1 | 48 | 39 | 0 | 16 | 4 | 5 | 0 | 6 | 44 | 19 | 11 | 10 | 3 | 7 | 6 | 0 | 16 | 11 | 3 | CC(C)(C)Nc1c(COCc2ccccc2)nc2[nH]cnn12 | inhibition (INSR (human)): 4%; inhibition (ZAP70 (human)): 0%; inhibition [2]: 0%; inhibition (MKNK2 (human)): 0%; inhibition (INSRR (human)): 4%; inhibition (FLT1 (human)): 0%; inhibition (HIPK2 (human)): 18%; inhibition (MELK (human)): 16%; inhibition [3]: 0%; inhibition (IKBKB (human)): 9%; inhibition (CDK2 CCNA2 (human)): 14%; inhibition (CSNK2A1 (human)): 5%; inhibition (EPHB2 (human)): 1%; inhibition (IGF1R (human)): 0%; inhibition [4]: 14%; inhibition (MAPKAPK3 (human)): 38%; inhibition (MAPK1 (human)): 0%; inhibition (PDPK1 (human); ATP 20 µM): 13%; inhibition (PDPK1 (human); ATP 50 µM): 8%; inhibition (MAP3K11 (human)): 0% |
| 26 | 52 | 47 | 0 | 0 | 0 | 0 | 30 | 0 | 5 | 38 | 34 | 8 | 36 | 25 | 56 | 22 | 25 | 60 | 60 | COc1ccc(-c2cc3c(=O)[nH]cnc3s2)cc1OC | inhibition (INSR (human)): 0%; inhibition (ZAP70 (human)): 0%; inhibition [2]: 63%; inhibition (MKNK2 (human)): 21%; inhibition (INSRR (human)): 0%; inhibition (FLT1 (human)): 39%; inhibition (HIPK2 (human)): 58%; inhibition (MELK (human)): 22%; inhibition [3]: 0%; inhibition (IKBKB (human)): 29%; inhibition (CDK2 CCNA2 (human)): 0%; inhibition (CSNK2A1 (human)): 31%; inhibition (EPHB2 (human)): 17%; inhibition (IGF1R (human)): 0%; inhibition [4]: 0%; inhibition (MAPKAPK3 (human)): 56%; inhibition (MAPK1 (human)): 0%; inhibition (PDPK1 (human); ATP 20 µM): 41%; inhibition (PDPK1 (human); ATP 50 µM): 25%; inhibition (MAP3K11 (human)): 8% |
| 7 | 20 | 31 | 0 | 0 | 0 | 0 | 18 | 4 | 0 | 20 | 0 | 7 | 9 | 0 | 13 | 0 | 4 | 0 | 0 | O=c1c(NC(=S)NCc2ccccc2)cnc2[nH]ccn12 | inhibition (INSR (human)): 0%; inhibition (ZAP70 (human)): 0%; inhibition [2]: 0%; inhibition (MKNK2 (human)): 13%; inhibition (INSRR (human)): 0%; inhibition (FLT1 (human)): 28%; inhibition (HIPK2 (human)): 0%; inhibition (MELK (human)): 0%; inhibition [3]: 0%; inhibition (IKBKB (human)): 0%; inhibition (CDK2 CCNA2 (human)): 0%; inhibition (CSNK2A1 (human)): 3%; inhibition (EPHB2 (human)): 3%; inhibition (IGF1R (human)): 0%; inhibition [4]: 5%; inhibition (MAPKAPK3 (human)): 21%; inhibition (MAPK1 (human)): 0%; inhibition (PDPK1 (human); ATP 20 µM): 0%; inhibition (PDPK1 (human); ATP 50 µM): 0%; inhibition (MAP3K11 (human)): 11% |
| 31 | 51 | 32 | 18 | 44 | 89 | 27 | 89 | 77 | 34 | 81 | 72 | 26 | 41 | 34 | 63 | 19 | 16 | 76 | 68 | Nc1nc2cnc(-c3ccccc3)cn2n1 | inhibition (INSR (human)): 97%; inhibition (ZAP70 (human)): 0%; inhibition [2]: 34%; inhibition (MKNK2 (human)): 66%; inhibition (INSRR (human)): 71%; inhibition (FLT1 (human)): 82%; inhibition (HIPK2 (human)): 57%; inhibition (MELK (human)): 13%; inhibition [3]: 2%; inhibition (IKBKB (human)): 27%; inhibition (CDK2 CCNA2 (human)): 54%; inhibition (CSNK2A1 (human)): 55%; inhibition (EPHB2 (human)): 30%; inhibition (IGF1R (human)): 91%; inhibition [4]: 31%; inhibition (MAPKAPK3 (human)): 40%; inhibition (MAPK1 (human)): 47%; inhibition (PDPK1 (human); ATP 20 µM): 35%; inhibition (PDPK1 (human); ATP 50 µM): 6%; inhibition (MAP3K11 (human)): 89% |
